Experiment [1] relates to VIOTR. As to the kind of experiment: Pre-emergence action at 320 g/ha against VIOTR. Particulars: dosage 320 g/ha. The format is in vivo, Viola tricolor. In outline: (§1)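 Sow seeds, cover with soil, spray soil surface (WP/EC, 0.5% additive, 600 l/ha water), hold in greenhouse ~3 wk, then rate % activity visually against untreated controls.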
The next experiment concerns LOLRI. As to the kind of experiment: Post-emergence action against LOLRI, 1.28 kg/ha. Particulars: dosage 1280 g/ha, visual rating about 3 weeks after treatment vs untreated controls. The format is in vivo, Lolium rigidum. The method in brief:
(§2)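 Activity scored visually roughly 3 weeks after treatment against untreated plants (0% = as control, 100% = dead). Plants grown in sandy loam in greenhouse, treated at one-leaf stage, 2–3 weeks post-sowing, with WP/EC spray containing 0.5% additive at 600 l/ha.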

The test system of a further experiment is SETVI. As to the kind of experiment: Post-emergence action against SETVI, 1.28 kg/ha. Type of experiment: in vivo, Setaria viridis. Particulars: dosage 1280 g/ha, visual rating about 3 weeks after treatment vs untreated controls. In outline:
as §2

For experiment [2], the system named is AMARE. As to the kind of experiment: Post-emergence action against AMARE, 1.28 kg/ha. The format is in vivo, Amaranthus retroflexus. Particulars: dosage 1280 g/ha, visual rating about 3 weeks after treatment vs untreated controls (100% = plants died). In outline:
as §2

For a further experiment, the system named is VERPE. As to the kind of experiment: Post-emergence action against VERPE, 1.28 kg/ha. The format is in vivo, Veronica persica. The note with it: dosage 1280 g/ha, visual rating about 3 weeks after treatment vs untreated controls (100% = plants died). In outline:
as §2

For experiment [3], the system named is ALOMY. As to the kind of experiment: Post-emergence action against ALOMY, 320 g/ha. Type of experiment: in vivo, Alopecurus myosuroides. Particulars: dosage 320 g/ha, visual rating about 3 weeks after treatment vs untreated controls (100% = plants died). The method in brief: (§3)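 Herbicidal effect is scored by eye about 3 weeks after a foliar spray and expressed as percent activity, with untreated plants as 0% and dead plants as 100%. Treatment is applied at the one-leaf stage of greenhouse-grown, soil-sown plants, at a water rate of 600 l/ha containing 0.5% additive.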

The subject of experiment [4] is DIGSA. As to the kind of experiment: Post-emergence action at 320 g/ha against DIGSA. Type of experiment: in vivo, Digitaria sanguinalis. The note with it: dosage 320 g/ha, visual rating about 3 weeks after treatment vs untreated controls (100% = plants died). In outline: as §3
In the next experiment the test system is ECHCG. As to the kind of experiment: Post-emergence action at 320 g/ha against ECHCG. Type of experiment: in vivo, Echinochloa crus-galli. The note with it: dosage 320 g/ha, visual rating about 3 weeks after treatment vs untreated controls (100% = plants died). In outline:
as §3

For experiment [5], the system named is AMARE. As to the kind of experiment: Post-emergence action at 320 g/ha against AMARE. Type of experiment: in vivo, Amaranthus retroflexus. The note with it: visual rating about 3 weeks after treatment vs untreated controls. The method in brief: as §3
The test system of the next experiment is PHBPU. Kind of experiment: Post-emergence action at 320 g/ha against PHBPU. The note with it: visual rating about 3 weeks after treatment vs untreated controls. The format is in vivo. The method in brief:
as §3

The test system of the next experiment is POLCO. As to the kind of experiment: Post-emergence action at 320 g/ha against POLCO. Type of experiment: in vivo, Fallopia convolvulus (Polygonum convolvulus). The note with it: visual rating about 3 weeks after treatment vs untreated controls. The method in brief:
as §3

In experiment [6] the test system is VIOTR. As to the kind of experiment: Post-emergence action at 320 g/ha against VIOTR. Type of experiment: in vivo, Viola tricolor. The note with it: visual rating about 3 weeks after treatment vs untreated controls. In outline: as §3
Experiment [7] has as its system ALOMY. As to the kind of experiment: Pre-emergence action against ALOMY, 1280 g/ha. The note with it: visual scoring after about 3 weeks vs untreated controls, 100% = plants have died, 0% = like control plants. Type of experiment: in vivo, Alopecurus myosuroides. In outline:
(§4)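 Percent herbicidal effect, judged by eye relative to untreated pots around 3 weeks after soil-surface treatment. Application: formulated compound in water, 600 L/ha, 0.5% additive, on soil over sown seeds; greenhouse.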

The test system of experiment [8] is DIGSA. As to the kind of experiment: Pre-emergence action against DIGSA, 1280 g/ha. The note with it: visual scoring after about 3 weeks vs untreated controls, 100% = plants have died, 0% = like control plants. The format is in vivo, Digitaria sanguinalis. The method in brief:
as §4

The next experiment has as its system AVEFA. As to the kind of experiment: Pre-emergence action at 320 g/ha against AVEFA. Type of experiment: in vivo. Particulars: visual scoring after about 3 weeks vs untreated controls. In outline: as §1

Consider `O=C(O)COc1nn(-c2ccccc2F)c(-c2ccnc(F)c2)c1Br` [VIII-004], for which the “Pre-emergence action against VIOTR in %” value in the experiment on VIOTR [1] was 90%. The “Post-emergence action against LOLRI” value in the experiment on LOLRI is recorded as 100%. Further, the “Post-emergence action against SETVI” value in the experiment on SETVI worked out at 100%. In addition, the “Post-emergence action against AMARE” value in the experiment on AMARE [2] is 90%. Moreover, the “Post-emergence action against VERPE” value with VERPE amounted to 90%. Also, the “Post-emergence action against ALOMY” value in the experiment with ALOMY [3] is on record as 90%. Also, the “Post-emergence action at 320 g/ha against DIGSA in %” value in the experiment on DIGSA [4] is 90%. In addition, in the experiment with ECHCG, the “Post-emergence action at 320 g/ha against ECHCG in %” value was found to be 90%. Besides, the “Post-emergence action against AMARE in %” value with AMARE [5] was found to be 90%. The “Post-emergence action against PHBPU in %” value in the experiment with PHBPU is recorded as 90%. For the same molecule, the “Post-emergence action against POLCO in %” value with POLCO was 80%. Besides, in the experiment with VIOTR [6], the “Post-emergence action against VIOTR in %” value is reported as 90%.
As to `CS(=O)(=O)NC(=O)COc1nn(-c2ccccc2F)c(-c2ccc(F)nc2)c1Br` [Example X-004], the “Pre-emergence action against ALOMY” value in the experiment on ALOMY [7] is 90%. For the same molecule, in the experiment with DIGSA [8], the “Pre-emergence action against DIGSA” value was determined as 90%. In the experiment on AVEFA, the “Pre-emergence action against AVEFA in %” value came to 90%. Further, the “Pre-emergence action against VIOTR in %” value with VIOTR [1] was found to be 100%. The “Post-emergence action against SETVI” value in the experiment on SETVI turned out to be 90%. Also, the “Post-emergence action against AMARE” value with AMARE [2] was found to be 100%. Also, the “Post-emergence action against VERPE” value in the experiment with VERPE was 100%. Besides, in the experiment on ALOMY [3], the “Post-emergence action against ALOMY” value is reported as 100%. Also, in the experiment with DIGSA [4], the “Post-emergence action at 320 g/ha against DIGSA in %” value amounted to 90%. For the same molecule, the “Post-emergence action at 320 g/ha against ECHCG in %” value in the experiment with ECHCG is 90%. Besides, the “Post-emergence action against AMARE in %” value in the experiment on AMARE [5] is on record as 90%. For the same molecule, the “Post-emergence action against PHBPU in %” value with PHBPU stood at 90%. In addition, the “Post-emergence action against POLCO in %” value in the experiment on POLCO is 80%. The “Post-emergence action against VIOTR in %” value in the experiment on VIOTR [6] stood at 80%.
For the molecule `COC(=O)CNC(=O)COc1nn(-c2ccccc2F)c(-c2ccc(F)nc2)c1Br` [Example X-002], the “Pre-emergence action against ALOMY” value with ALOMY [7] worked out at 100%. For the same molecule, the “Pre-emergence action against DIGSA” value in the experiment with DIGSA [8] is 100%. In addition, the “Pre-emergence action against AVEFA in %” value with AVEFA is listed as 100%. Further, the “Pre-emergence action against VIOTR in %” value in the experiment with VIOTR [1] was found to be 100%. Also, the “Post-emergence action against SETVI” value in the experiment with SETVI was determined as 100%. For the same molecule, the “Post-emergence action against AMARE” value with AMARE [2] was 90%. Moreover, the “Post-emergence action against VERPE” value in the experiment with VERPE was 90%. Besides, the “Post-emergence action against ALOMY” value with ALOMY [3] turned out to be 100%. The “Post-emergence action at 320 g/ha against DIGSA in %” value in the experiment with DIGSA [4] is listed as 100%. Also, the “Post-emergence action at 320 g/ha against ECHCG in %” value with ECHCG turned out to be 100%. The “Post-emergence action against AMARE in %” value in the experiment with AMARE [5] is on record as 100%. For the same molecule, the “Post-emergence action against PHBPU in %” value with PHBPU is listed as 90%. Moreover, the “Post-emergence action against POLCO in %” value in the experiment on POLCO amounted to 90%. Moreover, in the experiment on VIOTR [6], the “Post-emergence action against VIOTR in %” value is recorded as 90%.
As usually defined, the pest or weed control is how far the test organism was held down. Turning to `C=CCNC(=O)COc1nn(-c2ccccc2F)c(-c2ccc(F)nc2)c1Br` [Example X-001, N-Allyl-2-{[4-bromo-1-(2-fluorophenyl)-5-(6-fluoropyridin-3-yl)-1H-pyrazol-3-yl]oxy}acetamide], the “Pre-emergence action against ALOMY” value in the experiment on ALOMY [7] worked out at 90%. In addition, in the experiment with DIGSA [8], the “Pre-emergence action against DIGSA” value is 100%. For the same molecule, the pest or weed control at 320 g/ha with AVEFA (Avena fatua, 504 h) was found to be 90%; with VIOTR [1] (Viola tricolor, 504 h), 100%; with DIGSA [4] (Digitaria sanguinalis, 504 h), 80%; in the experiment with AMARE [5] (Amaranthus retroflexus, 504 h), 80%; in the experiment on POLCO (Fallopia convolvulus, 504 h) it was 80%. Moreover, in the experiment on AMARE [2], the “Post-emergence action against AMARE” value is recorded as 90%. In the experiment with VERPE (Veronica persica, 504 h), the pest or weed control at 1280 g/ha came to 100%. Moreover, the “Post-emergence action against ALOMY” value with ALOMY [3] was 90%. Moreover, the “Post-emergence action at 320 g/ha against ECHCG in %” value in the experiment on ECHCG is 80%. Moreover, in the experiment with PHBPU, the “Post-emergence action against PHBPU in %” value is on record as 80%.

(Values after patent US12180187B2, “1-phenyl-5-azinylpyrazolyl-3-oxyalkyl acids and their use for controlling unwanted plant growth” (BAYER AKTIENGESELLSCHAFT, priority 2019, dated 2024).)
